Test results reported in patent US8188101B2 (AstraZeneca AB, priority 2008, dated 2012).

The molecules below were run on Aβ42 release (assay: Aβ release in cells stably expressing APPswe, Meso Scale Discovery electrochemiluminescence assay). Conditions: HEK or SH-SY5Y cells stably expressing APPswe, 4-6 hours incubation with test compound.
Type: cell-based, Human
Method: The level of activity of the compounds on Aβ release was tested using the following method:
Compounds were diluted in 100% DMSO and stored at […] prior to use. Human Embryonic Kidney (HEK) or Human Neuroblastoma (SH-SY5Y) cell lines stably expressing APP with the Swedish mutation (APPswe) were cultured using Dulbecco's Modified Eagles medium (DMEM) supplied with […] glucose, Na-pyruvate and GlutaMAX with 10% FBS, 100 U/ml penicillin-streptomycin (PEST) respectively, 1× non-essential amino acids (NEAA), […] Hepes, 100 μg/ml Zeocine. Cells at about 80% confluence were washed with PBS, detached from culture flasks using 1× Trypsin/EDTA diluted in PBS, re-suspended in cell media and plated in 384-well poly-d-lysine coated cell culture plates at about 10000-15000 cells/well, in 25 μL cell media. Optionally, cryo-preserved cells (frozen and stored at −140° C. in 90% cell media and 10% DMSO) were thawed, washed and plated as above. Next the cells were incubated for 15-24 h at 37° C. and 5% CO2, after which cell medium was changed. Fresh medium containing test compound diluted ×200 from prepared compound plate was added to the cells before further incubation for 4-6 hours at 37° C. and 5% CO2. After incubation with test compound the amount of Aβ peptides, including Aβ42, Aβ40, Aβ39, Aβ38 and Aβ37, secreted to the cell medium was analyzed using the electrochemiluminescence assay technology from Meso Scale Discovery Technology, in combination with specific antibodies raised against the different Aβ peptides. Potential cytotoxic effects of the compounds were usually assayed by measuring the ATP content (ViaLight) from cell lysate.

`Cc1nccn1-c1ccc(Nc2nc3c(c(C(C)c4ccccc4)n2)CN(C)CC3)cc1` (single isomer, unassigned) [Example 70, 6-Methyl-N-(4-(2-methyl-1H-imidazol-1-yl)phenyl)-4-(1-phenylethyl)-5,6,7,8-tetrahydropyrido[4,3-d]pyrimidin-2-amine] was tested, and the pIC50 was 6.2.
In the case of `Cc1nccn1-c1ccc(Nc2nc3c(c(C(C)c4ccccc4)n2)CN(C)CC3)cc1` (single isomer, unassigned) [Example 71, 6-Methyl-N-(4-(2-methyl-1H-imidazol-1-yl)phenyl)-4-(1-phenylethyl)-5,6,7,8-tetrahydropyrido[4,3-d]pyrimidin-2-amine], the pIC50 is reported as 6.6.

Same assay, conditions: Homo sapiens, SH-SY5Y, HEK or SH-SY5Y cells stably expressing APPswe, 4-6 hours incubation with test compound

Going from `OCCN(c1ccccc1)c1nc(Nc2ccc(-c3cnco3)cc2)nc2c1CNCC2` [Example 1, 2-((2-(4-(Oxazol-5-yl)phenylamino)-5,6,7,8-tetrahydropyrido[4,3-d]pyrimidin-4-yl)(phenyl)amino)ethanol] to `CN1CCc2nc(Nc3ccc(-c4cnco4)cc3)nc(N(CCO)c3ccccc3)c2C1` [Example 2, 2-((6-Methyl-2-(4-(oxazol-5-yl)phenylamino)-5,6,7,8-tetrahydropyrido[4,3-d]pyrimidin-4-yl)(phenyl)amino)ethanol], the IC50 falls from 1000 nM to 398 nM (2.5-fold). The second is the more potent here.

`c1ccc(Nc2nc(Nc3ccc(-c4cnco4)cc3)nc3c2CNCC3)cc1` [Example 3, N2-(4-(Oxazol-5-yl)phenyl)-N4-phenyl-5,6,7,8-tetrahydropyrido[4,3-d]pyrimidine-2,4-diamine] and `c1ccc(CNc2nc(Nc3ccc(-c4cnco4)cc3)nc3c2CNCC3)cc1` [Example 6, N4-Benzyl-N2-(4-(oxazol-5-yl)phenyl)-5,6,7,8-tetrahydropyrido[4,3-d]pyrimidine-2,4-diamine] are within 1.5-fold of each other in IC50: 1000 nM for the first, 1260 nM for the second.

Compared with `CN1CCc2nc(Nc3ccc(-c4cnco4)cc3)nc(Nc3ccccc3)c2C1` [Example 4, 6-Methyl-N2-(4-(oxazol-5-yl)phenyl)-N4-phenyl-5,6,7,8-tetrahydropyrido[4,3-d]pyrimidine-2,4-diamine], `c1ccc(CNc2nc(Nc3ccc(-c4cnco4)cc3)nc3c2CCNC3)cc1` [Example 5, N4-Benzyl-N2-(4-(oxazol-5-yl)phenyl)-5,6,7,8-tetrahydropyrido[3,4-d]pyrimidine-2,4-diamine] is 3.2-fold higher in IC50: 316 nM for the first, 1000 nM for the second. The first is the more potent here.

`COc1cc(Nc2nc3c(c(Nc4ccccc4)n2)CNCC3)ccc1-n1cnc(C)c1` [Example 7, N2-(3-Methoxy-4-(4-methyl-1H-imidazol-1-yl)phenyl)-N4-phenyl-5,6,7,8-tetrahydropyrido[4,3-d]pyrimidine-2,4-diamine] and `COc1cc(Nc2nc3c(c(Nc4ccccc4)n2)CN(CCO)CC3)ccc1-n1cnc(C)c1` [Example 8, 2-(2-(3-Methoxy-4-(4-methyl-1H-imidazol-1-yl)phenylamino)-4-(phenylamino)-7,8-dihydropyrido[4,3-d]pyrimidin-6(5H)-yl)ethanol] are within 1.5-fold of each other in IC50: 100 nM for the first, 79.4 nM for the second.

Compared with `Cc1nccn1-c1ccc(Nc2nc3c(c(N4c5ccccc5C[C@H]4CO)n2)CN(C)CC3)cc1` [Example 9, (S)-(1-(6-methyl-2-(4-(2-methyl-1H-imidazol-1-yl)phenylamino)-5,6,7,8-tetrahydropyrido[4,3-d]pyrimidin-4-yl)indolin-2-yl)methanol], `Cc1nccn1-c1ccc(Nc2nc3c(c(N4c5ccccc5C[C@@H]4CO)n2)CN(C)CC3)cc1` [Example 13, (R)-(1-(6-Methyl-2-(4-(2-methyl-1H-imidazol-1-yl)phenylamino)-5,6,7,8-tetrahydropyrido[4,3-d]pyrimidin-4-yl)indolin-2-yl)methanol] is 2-fold higher in IC50: 1580 nM for the first, 3160 nM for the second. The first is the more potent here.

`Cc1nccn1-c1ccc(Nc2nc3c(c(N[C@@H]4CC5CCC4C5)n2)CN(C)CC3)cc1` (stereo partly drawn) [Example 10, N4-((2R)-bicyclo[2.2.1]heptan-2-yl)-6-methyl-N2-(4-(2-methyl-1H-imidazol-1-yl)phenyl)-5,6,7,8-tetrahydropyrido[4,3-d]pyrimidine-2,4-diamine] and `Cc1nccn1-c1ccc(Nc2nc3c(c(N(C)C4CCCCC4)n2)CN(C)CC3)cc1` [Example 11, N4-Cyclohexyl-N4,6-dimethyl-N2-(4-(2-methyl-1H-imidazol-1-yl)phenyl)-5,6,7,8-tetrahydropyrido[4,3-d]pyrimidine-2,4-diamine] are within 1.5-fold of each other in IC50: 501 nM for the first, 398 nM for the second.

Going from `c1ccc(COc2nc(Nc3ccc(-c4cnco4)cc3)nc3c2CNCC3)cc1` [Example 12, 4-(Benzyloxy)-N-(4-(oxazol-5-yl)phenyl)-5,6,7,8-tetrahydropyrido[4,3-d]pyrimidin-2-amine] to `COC(=O)N1CCc2nc(Nc3ccc(-c4cnco4)cc3)nc(N(CCO)c3ccccc3)c2C1` [Example 23, Methyl 4-((2-hydroxyethyl)(phenyl)amino)-2-(4-(oxazol-5-yl)phenylamino)-7,8-dihydropyrido[4,3-d]pyrimidine-6(5H)-carboxylate], the IC50 rises from 3980 nM to 6310 nM (1.6-fold).

Compared with `CCCN1CCc2nc(Nc3ccc(-c4cnco4)cc3)nc(N(CCO)c3ccccc3)c2C1` [Example 14, 2-((2-(4-(Oxazol-5-yl)phenylamino)-6-propyl-5,6,7,8-tetrahydropyrido[4,3-d]pyrimidin-4-yl)(phenyl)amino)ethanol], `CCC(=O)N1CCc2nc(Nc3ccc(-c4cnco4)cc3)nc(N(CCO)c3ccccc3)c2C1` [Example 15, 1-(4-((2-Hydroxyethyl)(phenyl)amino)-2-(4-(oxazol-5-yl)phenylamino)-7,8-dihydropyrido[4,3-d]pyrimidin-6(5H)-yl)propan-1-one] is 3.2-fold higher in IC50: 126 nM for the first, 398 nM for the second. The first is the more potent here.

`O=C(C1CC1)N1CCc2nc(Nc3ccc(-c4cnco4)cc3)nc(N(CCO)c3ccccc3)c2C1` [Example 16, Cyclopropyl(4-((2-hydroxyethyl)(phenyl)amino)-2-(4-(oxazol-5-yl)phenylamino)-7,8-dihydropyrido[4,3-d]pyrimidin-6(5H)-yl)methanone] and `O=C(CO)N1CCc2nc(Nc3ccc(-c4cnco4)cc3)nc(N(CCO)c3ccccc3)c2C1` [Example 19, 2-Hydroxy-1-(4-((2-hydroxyethyl)(phenyl)amino)-2-(4-(oxazol-5-yl)phenylamino)-7,8-dihydropyrido[4,3-d]pyrimidin-6(5H)-yl)ethanone] are within 1.5-fold of each other in IC50: 631 nM for the first, 794 nM for the second.

Going from `CN(C)CC(=O)N1CCc2nc(Nc3ccc(-c4cnco4)cc3)nc(N(CCO)c3ccccc3)c2C1` [Example 17, 2-(Dimethylamino)-1-(4-((2-hydroxyethyl)(phenyl)amino)-2-(4-(oxazol-5-yl)phenylamino)-7,8-dihydropyrido[4,3-d]pyrimidin-6(5H)-yl)ethanone] to `CN(C)C(=O)N1CCc2nc(Nc3ccc(-c4cnco4)cc3)nc(N(CCO)c3ccccc3)c2C1` [Example 25, 4-((2-Hydroxyethyl)(phenyl)amino)-N,N-dimethyl-2-(4-(oxazol-5-yl)phenylamino)-7,8-dihydropyrido[4,3-d]pyrimidine-6(5H)-carboxamide], the IC50 falls from 1580 nM to 794 nM (2-fold).

First: COCC(=O)N1CCc2nc(Nc3ccc(-c4cnco4)cc3)nc(N(CCO)c3ccccc3)c2C1 [Example 18, 1-(4-((2-Hydroxyethyl)(phenyl)amino)-2-(4-(oxazol-5-yl)phenylamino)-7,8-dihydropyrido[4,3-d]pyrimidin-6(5H)-yl)-2-methoxyethanone]
Second: CCOC(=O)N1CCc2nc(Nc3ccc(-c4cnco4)cc3)nc(N(CCO)c3ccccc3)c2C1 [Example 24, Ethyl 4-((2-hydroxyethyl)(phenyl)amino)-2-(4-(oxazol-5-yl)phenylamino)-7,8-dihydropyrido[4,3-d]pyrimidine-6(5H)-carboxylate]
The IC50 of the first is 10-fold higher: 2510 nM for the first, 251 nM for the second. The second is the more potent here.

`C[C@H](O)C(=O)N1CCc2nc(Nc3ccc(-c4cnco4)cc3)nc(N(CCO)c3ccccc3)c2C1` [Example 20, (S)-2-Hydroxy-1-(4-((2-hydroxyethyl)(phenyl)amino)-2-(4-(oxazol-5-yl)phenylamino)-7,8-dihydropyrido[4,3-d]pyrimidin-6(5H)-yl)propan-1-one] and `CS(=O)(=O)N1CCc2nc(Nc3ccc(-c4cnco4)cc3)nc(N(CCO)c3ccccc3)c2C1` [Example 21, 2-((6-(Methylsulfonyl)-2-(4-(oxazol-5-yl)phenylamino)-5,6,7,8-tetrahydropyrido[4,3-d]pyrimidin-4-yl)(phenyl)amino)ethanol] are within 1.5-fold of each other in IC50: 1000 nM for the first, 1260 nM for the second.

`CCS(=O)(=O)N1CCc2nc(Nc3ccc(-c4cnco4)cc3)nc(N(CCO)c3ccccc3)c2C1` [Example 22, 2-((6-(Ethylsulfonyl)-2-(4-(oxazol-5-yl)phenylamino)-5,6,7,8-tetrahydropyrido[4,3-d]pyrimidin-4-yl)(phenyl)amino)ethanol] and `CC(=O)N1CCc2nc(Nc3ccc(-c4cnco4)cc3)nc(NC[C@@H]3CCCO3)c2C1` [Example 27, (S)-1-(2-(4-(Oxazol-5-yl)phenylamino)-4-((tetrahydrofuran-2-yl)methylamino)-7,8-dihydropyrido[4,3-d]pyrimidin-6(5H)-yl)ethanone] are within 1.5-fold of each other in IC50: 398 nM for the first, 316 nM for the second.

With `CC(=O)N1CCc2nc(Nc3ccc(-c4cnco4)cc3)nc(NC3CCCCC3)c2C1` [Example 26, 1-(4-(Cyclohexylamino)-2-(4-(oxazol-5-yl)phenylamino)-7,8-dihydropyrido[4,3-d]pyrimidin-6(5H)-yl)ethanone] the IC50 was 126 nM.
